Assay results reported in patent US20230107770A1, “METHOD OF ENHANCING IMMUNOTHERAPY USING ER STRESS PATHWAY INHIBITORS” (H. LEE MOFFITT CANCER CENTER AND RESEARCH INSTITUTE, INC., priority 2020, published 2023).

Assays:
CD8+ TILs = assay: Flow cytometry of tumor-infiltrating CD8+ T cells from treated mice; type: in vivo
Description: All analysis was performed using FlowJo version 11 software.

B16 tumors = assay: s.c. B16 melanoma tumor model in mice; type: in vivo
[1] = system: FSHR+-ID8-Defb29/Vegfa ovarian tumors; assay: ER stress-targeting therapy combined with FSH-CER T cells in ovarian tumor-bearing mice; type: in vivo; conditions: MKC8866 i.p. 300 mg/kg or AMG-44 i.p. 12 mg/kg daily for one week; FSH-CER T cells days 7 and 14
Description: The role of the PERK-Chop in the expansion of tumor TRM cells using conditional T cell Chop-null mice was evaluated. In agreement with the inhibitory effect of Chop in TRM development, higher frequency of TRM cells was detected in tumors from T cell-Chop^KO mice compared to controls (FIG. 23A). Next, we tested the effect of the inhibition of PERK (AMG-44) and IRE 1α (MKC8866) during the expansion of IL-2-supplemented human FSH-CER T cells. […] Also, we evaluated the therapeutic effect of the combination of ER stress-targeting therapy and FSH-CER. […]
Activation of the UPR in cancer cells mediates adaptation processes in the TME, whereas UPR priming in tumor-myeloid cells promotes their immunoregulatory activity. […] As main readouts of therapeutic efficacy, we will monitor tumor burden, overall survival, and tumor CER-T cell infiltration, persistence, and cytotoxic capacity (Exp. C.2.1.1). […] Additionally, we will sort DCs and MDSC from tumor sites and lymphoid organs to quantify the expression of ER stress gene markers, their ability to impair T cell proliferation and IFNγ production, and the levels of the UPR-related immunoinhibitory factors IL-6, PGE2, Cox-2, mPGES-1, and Arginase I. All required methods are established by our groups. […]

tumor-MDSC = assay: Ex vivo suppression assay: tumor-MDSC co-cultured with primed CFSE-labeled T cells; type: cell-based, mice; conditions: tumor-MDSC (1:1/4) from B16-bearing mice; AMG-44 12 mg/kg
Description: CD3^+ T cells were enriched using mouse or human T cell negative selection kits (MagniSort, Invitrogen) from the spleen and lymph nodes of C57BL/6 mice; or from purchased human buffy-coat units (One-Blood, Tampa, Fla.). Purity ranged between 95% and 99% as tested by flow cytometry. For antigen-specific priming studies, CD8^+ T cells were enriched using negative selection kits from the spleens of OT-I mice previously activated with OVA257-264 (SIINFEKL) for 48 hours. Tumor-MDSC were isolated from cellular suspensions of digested tumors followed by positive selection (MojoSort Streptavidin Nanobeads, Biolegend) using anti-Gr1 (Clone RB6-8C5, eBioscience) or anti-CD11b-biotinylated antibodies (Clone M1/70, StemCell Technologies, Vancouver). Also, M-MDSC (CD11b^+Gr1^+Ly6G^lowLy6C^high), PMN-MDSC (CD11b^+Gr1^+Ly6G^+Ly6C^low), macrophages (CD11b^+Gr1^negF4/80^+CD11c^neg), and myeloid DCs (CD11b^+Gr1^negF4/80^negCD11c^+) were sorted from tumors in a FACSAriaII (BD Biosciences).
Murine BM-MDSC (ratio 1:1/8) or tumor-MDSC (ratio 1:1/4) were co-cultured with negatively selected CD3^+ T cells in a 96 well plate bound α-CD3 and α-CD28 (1 μg/ml each, eBioscience) for 3 days. T cell proliferation was assessed with Carboxyfluorescein succinimidyl ester (CFSE) or Cell-trace violet (Invitrogen) dye dilution detected by flow cytometry. For human studies, MDSC were co-cultured with enriched CD3^+ T cells activated with soluble α-CD3 (1 μg/ml, clone OKT3) and α-CD28 (0.5 μg/ml, clone L293) for 3 days in a 96 well plate bound with goat anti-mouse IgG (10 μg/ml). Results are expressed as percentage of proliferating T cells, determined by the dilution of fluorescence compared with non-stimulated T cells.

human FSH-CER T cells = assay: Expansion of IL-2-supplemented human FSH-CER T cells with ER stress inhibitors; type: cell-based; conditions: treatment for 5 days
Description: The role of the PERK-Chop in the expansion of tumor TRM cells using conditional T cell Chop-null mice was evaluated. In agreement with the inhibitory effect of Chop in TRM development, higher frequency of TRM cells was detected in tumors from T cell-Chop^KO mice compared to controls (FIG. 23A). Next, we tested the effect of the inhibition of PERK (AMG-44) and IRE 1α (MKC8866) during the expansion of IL-2-supplemented human FSH-CER T cells. […] Also, we evaluated the therapeutic effect of the combination of ER stress-targeting therapy and FSH-CER. Thus, mice bearing FSHR+-ID8-Defb29/Vegfa ovarian tumors for 7 days received daily treatments with MKC8866 (i.p., 300 mg/kg) or AMG-44 (i.p. 12 mg/kg) for one-week, and i.p. transfer of FSH-CER T cells at days 7 and 14 post-tumor challenge. […] We postulate that treatments for longer time periods with ER stress inhibitors will further potentiate the effect of FSH-CER T cells

Cc1ccc2cc(-c3c(C)ccc(C(=O)c4c(-c5ccccc5)n(C)n(-c5ccccc5)c4=O)c3N)ccc2n1 [AMG-44]
tumor-infiltrating CD8+ T cells expressing IFNγ (CD8+ TILs; B16-bearing mice, AMG-44 12 mg/kg): induced expansion
frequency of IFNγ-producing CD8+ T cells in tumors (CD8+ TILs; B16, GSK2606414 25 mg/kg or AMG-44 12 mg/kg, 17 days post-tumor injection): amplified the frequency of IFNγ-producing CD8^+ T cells in tumors
combination with anti-PD-L1 immunotherapy (B16 tumors; B16-bearing mice, AMG-44 12 mg/kg plus 250 μg anti-PD-L1 every 3rd day): synergized with anti-PD-L1 immunotherapy
therapeutic anti-tumor action in Eif2ak3^KO-Lyz2 mice (B16 tumors; B16, AMG-44 12 mg/kg): not in Eif2ak3^KO-Lyz2 counterparts
therapeutic anti-tumor action in PERK-competent mice (B16 tumors; B16, AMG-44 12 mg/kg, Eif2ak3^Flox mice): detected in PERK-competent mice
tumor growth (B16 tumors; B16, daily i.p. GSK2606414 25 mg/kg or AMG-44 12 mg/kg from day 7): delayed tumor growth
survival of hosts receiving FSH-CER T cells plus inhibitor [1]: Prolonged survival
immunoinhibitory activity of tumor-MDSC (tumor-MDSC): impaired the immunoinhibitory activity of tumor-MDSC
frequency of FSH-CER TRM cells (human FSH-CER T cells): Higher frequency of FSH-CER TRM cells
